# Laboratory results from patent publication US20220089602A1, “COMPOUNDS THAT INDUCE FERROPTIC CELL DEATH” (The Board of Trustees of the University of Illinois, priority 2019, published 2022).
# Columns and labels:
# ES-2 cells [1] = assay: Cellular lipid ROS production (C11-BODIPY); assay type: cell-based; conditions: 10 μM
# Experimental: (§1) ES-2, HCT 116, and 4T1 cells (1×10^5 cells/mL) were plated in 12-well plates. Cells were pre-treated for 2 hr with 100 μM deferoxamine followed by treatment with DMSO, 10 μM ferroptocide, 10 μM RSL3, or 100 μM TBHP for 1 hr, 1.5 hr and 2 hr respectively. Cells were washed with HBSS and incubated in the dark for 20 min with 5 μM C11-BODIPY probe. Cells were then washed 2× with HBSS and harvested at 1000×g, 3 min. After resuspension in 500 μl HBSS buffer, samples were analyzed with flow cytometry to record ten thousand events per sample in FL1 channel in BD LSR II Flow Cytometer (BD Bioscience). FCS express V6 De Novo software was used to generate histograms.
# HCT 116 cells = assay: Cellular lipid ROS production (C11-BODIPY); assay type: cell-based; conditions: 10 μM
# Experimental: as §1
# ES-2 cells [2] = assay: Confocal microscopy competition with fluorescent analogue P30; assay type: cell-based; conditions: pretreatment at 3× IC50 for 30 min, then P30 (5 μM)
# Experimental: ES-2 cells (3×10^5 cell) were attached overnight in […] petri dish plates containing 2 ml of RPMI media. Prior to imaging, cells were stained for 30 min with Mitotracker Red CMXRoss at 100 nM final concentration. Upon media replacement, samples were pre-treated with 3× IC50 of ferroptocide, P27, L1, QQ1 for 30 min followed by treatment with 5 μM P30 for an additional 30 min and a PBS wash. PBS or phenol free media was added to each dish and cells were stained with Hoechst 33342 (1 μg/mL).
# ES-2 cells [3] = assay: Mitochondrial ROS production (MitoSOX Red); assay type: cell-based; conditions: 1 hr
# Experimental: ES-2 cells (1×10^5 cells/mL) were plated in 12-well plates and allowed to attach overnight. Cells were treated for 1 hr with DMSO, 10 and 25 μM ferroptocide, 5 μM IB-DNQ, and 10 μM rotenone. Cells were washed with HBSS and incubated in the dark for 10 min with 5 μM MitoSOX Red probe. Cells were then washed 2× with HBSS and harvested at 1000×g, 3 min. After resuspension in 500 μl HBSS buffer, samples were analyzed with flow cytometry to record ten thousand events per sample in the PE channel in BD LSR II Flow Cytometer (BD Bioscience). FCS express V6 De Novo software was used to generate the histogram.
# thioredoxin = target: T1, thioredoxin (Homo sapiens, UniProt P10599); assay: Thioredoxin activity assay in cell lysate; assay type: cell-based; conditions: 30 min treatment, HCT 116 cells; versus PMX464 and PX-12 (50 μM)
# T1 construct: endogenous in cells
# Experimental: HCT 116 cells (1×10^6 cells/flask) were treated with DMSO, 10 μM ferroptocide, 50 μM PMX464, or 50 μM PX-12 for 30 min. Cells were harvested by centrifugation, resuspended in the assay buffer and lysed via sonication. For each condition, 20 μg of cell lysate was used to measure the activity thioredoxin activity following manufacturer' protocol (Cayman Chemical, Fluorescent Thioredoxin Activity Assay kit #20039) in a 96-well black-walled plate. For in vitro studies, human thioredoxin (10 μL of 0.2 μM solution) was used in addition to thioredoxin reductase (10 μL of 1.0 μM solution), 1 μl of DMSO, ferroptocide, […], or PX-12 at indicated concentrations, 5 μL of NADPH (diluted according to manufacturer's instructions), and assay buffer to a final volume of 75 μL. The plate was incubated at 37° C. for 30 min followed by immediate addition of 20 μL fluorescent substrate per each well (diluted as instructed in the assay kit). Fluorescence was monitored over 1 hr at 520 nm after excitation at 480 nm in a SpectraMax M3 (Molecular Devices) instrument at 37° C.
# [4] = Pharmacokinetic assessment; assay type: in vivo, C57BL/6 mice
# Experimental: The protocol was approved by the IACUC at the University of Illinois at Urbana-Champaign (Protocol Number: 14173). In these studies, 10- to 12-week-old female C57BL/6 mice (purchased from Charles River) were used. Ferroptocide was formulated in 100% PEG400. Mice were treated with ferroptocide (40 mg/kg) via i.p. with three mice per time point (15, 30, 45, 60, 120, 240, 480, and 1440 min). At specific time points, mice were sacrificed, and blood was collected, centrifuged; the serum was frozen at −80° C. until analysis. The proteins in a 50 μL aliquot of serum were precipitated by the addition of 50 μL acetonitrile and the sample was centrifuged to remove the proteins. Serum concentrations of ferroptocide were determined by reverse phase HPLC (Shimadzu Corporation, Japan). PK parameters were determined using GraphPad Prism Version 5.00 for Windows.
# 4T1 cells = assay: Cellular lipid ROS production (C11-BODIPY); assay type: cell-based, murine; conditions: 10 μM
# Experimental: as §1
# [5] = tested on: non-cancerous breast (MCF10A) cells; assay: Cell viability IC50 in non-cancerous cells; assay type: cell-based; conditions: Homo sapiens, MCF-10A
# Experimental: (§2) To a 384-well plate, 40 μL of 1.25× compound dilution or 1.25% DMSO-containing media was added (final volume of 1% DMSO). Concentrations of compounds tested were 100 μM to 100 nM. On each plate at least 3 technical replicates per compound were performed. Next, 10 μL of a 100,000 cells/mL suspension was added to each well, yielding a final concentration of 1,000 cells/well. To three wells in column 2 was added 1 μL of 10 mM doxorubicin (final concentration of 200 μM) as positive control of cell death. Plates were sealed with gas-permeable seals and incubated at 37° C. for 72 h. At that time, 5 μL of Alamar blue (440 μM resazurin in sterile PBS) was added and plates were incubated for 3-4 hours. Fluorescence was read on a Molecular Devices SpectraMax 3 (excitation=555 nm, emission=585 nm, emission cutoff=570 nm). Wells were normalized to the average of untreated wells (0% cell death). The data were plotted as compound concentration versus percent dead cells and fitted to a logistic-dose response curve using OriginPro 2015 (OriginLab, Northampton, Mass.). The data were generated in triplicate, and IC50 values are reported as the average of three separate experiments along with standard error of the mean.
# [6] = tested on: human skin fibroblast (HFF-1) cells; assay: Cell viability IC50 in non-cancerous cells; assay type: cell-based
# Experimental: as §2
# [7] = female, mouse, ip, 40 mg/kg i.p., C57BL/6 mice, serum
# T1 sequence (P10599 whole entry): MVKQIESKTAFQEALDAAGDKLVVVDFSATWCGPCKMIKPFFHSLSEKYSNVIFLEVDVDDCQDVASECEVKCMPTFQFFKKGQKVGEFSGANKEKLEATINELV
compound,measurement,setting,value
"C[C@@H]1CC[C@@]23C[C@H](O)C(=O)[C@@]2(O)[C@]1(C)[C@H](OC(=O)CCl)C[C@@H](C1=CCn2c(=O)n(-c4ccccc4)c(=O)n2C1)[C@@H]3C [Compound P18, ferroptocide]",lipid ROS,ES-2 cells [1],induces lipid ROS
same,lipid ROS,HCT 116 cells,induces lipid ROS
same,competition of P30 staining,ES-2 cells [2],competed away
same,mitochondrial ROS,ES-2 cells [3],increase of mitochondrial ROS
same,thioredoxin activity in cell lysate,thioredoxin,significantly reduced the activity of thioredoxin
same,AUC,[4]; [7],7040 ng·h/mL
same,half-life,[4]; [7],9.96 min
same,pharmacokinetics (in words),[4]; mice,poor pharmacokinetics
same,lipid ROS,4T1 cells,induces lipid ROS
same,IC50,[5],3.1 µM
same,IC50,[6],4.1 µM
